Data on 4 compounds can be found in patent publication US5079261A, “Use of lipoxin A4 and its derivatives as antagonists for slow-reacting substances of anaphylaxis” (Brigham and Women's Hospital, priority 1989, dated 1992).

In assay [1] the target is T1, mesangial cell LTD4 receptor (Rattus norvegicus, UniProt Q924T8).
T1 sequence (Q924T8 1-339): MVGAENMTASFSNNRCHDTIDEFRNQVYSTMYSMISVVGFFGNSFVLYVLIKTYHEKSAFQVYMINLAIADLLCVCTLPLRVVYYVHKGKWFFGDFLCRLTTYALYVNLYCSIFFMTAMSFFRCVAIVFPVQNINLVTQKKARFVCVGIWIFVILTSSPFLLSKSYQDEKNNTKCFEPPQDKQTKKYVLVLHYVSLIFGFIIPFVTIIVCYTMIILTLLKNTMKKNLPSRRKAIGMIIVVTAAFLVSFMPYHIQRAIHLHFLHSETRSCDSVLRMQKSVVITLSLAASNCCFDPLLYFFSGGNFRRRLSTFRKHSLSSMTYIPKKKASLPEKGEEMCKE
Conditions: even at a 1000-fold excess concentration.
Protocol: Mesangial Cell Culture: Rat mesangial cells were isolated and cultured as described previously (Harris, R. C., et al., J. Clin. Invest. 82:1028-1039(1988). Briefly, kidneys were exicesed from two young Sprague-Dawly rats under sterile conditions, and the cortices removed, minced, and washed several times in Hank's Balanced Salt Solution, containing 10 mM HEPES pH 7.4, amphotericin (0.25 μg/ml), and gentamicin (50 μg/ml). The tissue was then passed through consecutive sterilized stainless mesh filters with pore sizes of 212 μm, 150 μm, and then onto the final mesh of 75 μm. The isolated glomeruli were harvested from the surface of the 75 μm. The isolated glomeruli were harvested from the surface of the 75 μm filter and washed twisce with the Hank's Media. The glomeruli were suspended in RPMI 1640 Medium with 15% Fetal Bovine Serum (Givco), penicillin (100 μ/ml) and streptomycin (100 μg/ml) (Gibco), plated into 100 mm cell culture petri dishes, and incubated at 37° C. in a humidified atmosphere of 95% air and 5% air and 5% CO2. Mesangial cell colonies were subcultured in 60 mm culture dishes, and experiments were carried out in cells from passages 2 to 12. […] Cells were routinely grown in RPMI-1640, supplemented with 20% fetal calf serum, penicillin 100 μ/ml, and streptomycin 100 μg/ml.
Binding studies were routinely performed at 4° C. […] The cells were then dissolved with 1.0 ml of 1.0 N NaOH, neutralized with HCl, dissolved in 10 ml of Aquasol (New England Nuclear, Boston, MA), and the bound radioactivity was determined using a scintillation counter (Beckman Instruments). […] Cell density was determined by counting cells from replicate wells, using a Coulter Counter ZBi (Coulter Electronics, Inc., Hialeah, Fla.).

The test system of assay [2] is LTD4 receptor. To be noted: cited from earlier work.
The next assay concerns mesangial cells. To be noted: cited from earlier work.
Assay [3] in a line: Renal function in vivo in anesthetized rats (AP, Hct, RPF, GFR) during intrarenal arterial infusion. Also on record: species or system male Munich-Wistar rats. To be noted: for Mean percent fall in RPF / Mean percent fall in GFR: without LXA4. The text has this: (§1) Statistical: ANOVA with Bonferroni modification for multiple pre-planned comparisons was used, within each group and between groups, to compare the changes in various whole kidney and microcirculatory indices which occurred from one period to another. In phosphoinositide generation studies, increases in [^3 H]-IP3 CPMs in agonist-treated cells were compared to vehicle-treated controls using upaired students t-test. Differences were considered significant at a p value ≤0.05. All values are reported as means ± SEM.
Inulin and para-aminohippurate (PAH) clearances Were used to measure GFR and effective RPF. A needle was placed at the take-off of the left renal artery through which a maintenance infusion of 0.9% NaCl at a rate of 0.05 ml/min was initiated. […] Two experimental groups
Group I (n=14). First period: Clearances were performed during vehicle infusion.
Group II (n=12). First period: Clearances were performed during vehicle infusion.

For another assay, the system named is renal arterioles. Conditions: rat, in vivo; cited from earlier work.
Another assay relates to HL-60 myeloid cells. Conditions: DMSO-differentiated HL-60 cells; cited from earlier work.
A further assay relates to rat mesangial cells. The experiment in a line: IP3 formation ([3H]-inositol labeled mesangial cells) in response to LTD4 or LXA4. The assay is classed as cell-based. To be noted: Mesangial cell, read-out: increase in [3H]-IP3 counts over controls.
Excerpt: as §1
The isolated glomeruli were harvested from the surface of the 75 μm filter and washed twisce with the Hank's Media. […] Mesangial cell colonies were subcultured in 60 mm culture dishes, and experiments were carried out in cells from passages 2 to 12.
(§2) To label mesangial cells with [^3 H]-Inositol, cells grown to confluence in 60 mm culture dishes (10^6 cells/dish) were cultured in RPMI, supplemented with 10% dialyzed fetal calf serum and [^3 H]-inositol (1 μCi/ml) in a total incubation volume of 5 ml.
Reactions were terminated by the addition of cold 10% trichloroacetic acid (TCA), the supernatants subjected to ether extraction, and the aqueous phase titrated to neutral pH using 0.1 M Tris base. […] To ensure the reliability of the separation technique, the same methods for extraction and separation were applied to known amounts of [^3 H]-IP1, [^3 H]IP2, and [^3 H]-IP3 standards (New England Nuclear) mixed in a ratio of 3:2:1, respectively, and subjected to separation by HPLC.

For assay [4] the following is noted: intra-renal arterial LTD4 1 μg/kg/min; cited from earlier work.
Assay [5] relates to LTD4 receptor. Nature of the assay: Inhibition of LTD4-induced IP3 formation in mesangial cells. The assay is classed as cell-based, rat. Here is the method:
Mesangial Cell Culture: Rat mesangial cells were isolated and cultured as described previously (Harris, R. C., et al., J. Clin. Invest. 82:1028-1039(1988). Briefly, kidneys were exicesed from two young Sprague-Dawly rats under sterile conditions, and the cortices removed, minced, and washed several times in Hank's Balanced Salt Solution, containing 10 mM HEPES pH 7.4, amphotericin (0.25 μg/ml), and gentamicin (50 μg/ml). The tissue was then passed through consecutive sterilized stainless mesh filters with pore sizes of 212 μm, 150 μm, and then onto the final mesh of 75 μm. The isolated glomeruli were harvested from the surface of the 75 μm. The isolated glomeruli were harvested from the surface of the 75 μm filter and washed twisce with the Hank's Media. The glomeruli were suspended in RPMI 1640 Medium with 15% Fetal Bovine Serum (Givco), penicillin (100 μ/ml) and streptomycin (100 μg/ml) (Gibco), plated into 100 mm cell culture petri dishes, and incubated at 37° C. in a humidified atmosphere of 95% air and […] 5% CO2. Mesangial cell colonies were subcultured in 60 mm culture dishes, and experiments were carried out in cells from passages 2 to 12. The criteria used to establish the identify of mesangial cells were as described previously (Harris, R. C., et al., J. Clin. Invest. 82:1028-1039 (1988)). Cells were routinely grown in RPMI-1640, supplemented with 20% fetal calf serum, penicillin 100 μ/ml, and streptomycin 100 μg/ml. […] All eicosanoids were stored under argon at -70° C. in methanol and their purity and quantity verified periodically by ultraviolet scanning and high pressure liquid chromatography (Serhan, C. N. et al., J. Biol. Chem. 261:16340 (1986)).
as §2
Reactions were terminated by the addition of cold 10% trichloroacetic acid (TCA), the supernatants subjected to ether extraction, and the aqueous phase titrated to neutral pH using 0.1 M Tris base. [^3 H]-IP1, [^3 H]-IP2, and [^3 H]-IP3 in the aqueous phase were separated and quantitated by anion exchange column chromatography, using the method of Berridge et al. (Berridge, M. J., Biochem. J. 220:345-360 (1984)). To ensure the reliability of the separation technique, the same methods for extraction and separation were applied to known amounts of [^3 H]-IP1, [^3 H]IP2, and [^3 H]-IP3 standards (New England Nuclear) mixed in a ratio of 3:2:1, respectively, and subjected to separation by HPLC. The latter was performed using established methodology described previously (Cunha-Melo, J. R., et al., J. Biol. Chem. 262:11455-11463 (1987)).

Another assay relates to LTD4/ LTE4 receptors. Conditions: in vivo and in vitro; cited from earlier work.
For assay [6], the target named is T1, mesangial cell LTD4 receptor. On the set-up: endogenous in cells; host or cells: primary glomerular mesangial cells of young Sprague-Dawley rats, passages 2 to 12. Conditions: other studies of the inventors; cited from earlier work.
The test system of assay [7] is LTD4 receptor. Nature of the assay: Inhibition of LXA4-induced IP3 formation in mesangial cells. It is filed as cell-based, rat. Here is the method:
Mesangial Cell Culture: Rat mesangial cells were isolated and cultured as described previously (Harris, R. C., et al., J. Clin. Invest. 82:1028-1039(1988). Briefly, kidneys were exicesed from two young Sprague-Dawly rats under sterile conditions, and the cortices removed, minced, and washed several times in Hank's Balanced Salt Solution, containing 10 mM HEPES pH 7.4, amphotericin (0.25 μg/ml), and gentamicin (50 μg/ml). The tissue was then passed through consecutive sterilized stainless mesh filters with pore sizes of 212 μm, 150 μm, and then onto the final mesh of 75 μm. The isolated glomeruli were harvested from the surface of the 75 μm. […] All eicosanoids were stored under argon at -70° C. in methanol and their purity and quantity verified periodically by ultraviolet scanning and high pressure liquid chromatography (Serhan, C. N. et al., J. Biol. Chem. 261:16340 (1986)). […]
Reactions were terminated by the addition of cold 10% trichloroacetic acid (TCA), the supernatants subjected to ether extraction, and the aqueous phase titrated to neutral pH using 0.1 M Tris base. [^3 H]-IP1, [^3 H]-IP2, and [^3 H]-IP3 in the aqueous phase were separated and quantitated by anion exchange column chromatography, using the method of Berridge et al. (Berridge, M. J., Biochem. J. 220:345-360 (1984)). […]

Where [8] appears, read: Group I, period 2, A: LTD4 0.5 μg/kg/min, n=4.
The mark [9] stands for this setting: Group I, period 2, B: LTD4 7 μg/kg/min, n=3.
Setting [10] is: Group I, period 2, C: LTD4 14 μg/kg/min, n=3.
[11] abbreviates: Group I, period 2, D: LTD4 20 μg/kg/min, n=4.
[12] abbreviates: LTD4 7.0 μg/kg/min, p<0.05 vs baseline.
[13] abbreviates: LTD4 14.0 μg/kg/min, p<0.05 vs baseline.
Setting [14] is: LTD4 20.0 μg/kg/min, p<0.05 vs baseline.
The mark [15] stands for this setting: 100-fold concentrations of SKF 104353.

“Also recorded” adds a separate entry of the source.

Turning to `CCCCC[C@H](O)/C=C/C=C\C=C\C=C\[C@H](O)[C@@H](O)CCCC(=O)O` [6S-LXA4, 5S,6S,15S,trihydroxy-7,9,13-trans-11-cis-eicosatetraenoic acid, reference compound], the “Competition for [3H]-LTD4 at excess concentration” value in [1] was “filed to compete for [^3 H]-LTD4”.

On to `CCCc1c(OCC(O)COc2ccc3c(=O)cc(C(=O)O)oc3c2CCC)ccc(C(C)=O)c1O` (stereo not drawn) [FPL-55712], for which the Duration of action result in the assay with LTD4 receptor [2] is on record as “short-acting”.

As to `CCCCC/C=C\C\C=C/C=C/C=C/[C@@H](SC[C@H](N)C(=O)NCC(=O)O)[C@@H](O)CCCC(=O)O` [LTD4, reference compound], the “Contraction of mesangial cells in culture” value with mesangial cells is “contracts mesangial cells in culture”. For the same compound, the “GFR and RPF change (in words)” value in assay [3] (Group I, LTD4 0.5-20.0 μg/kg/min) is recorded as “dose-dependent reductions”. Further, the AP is listed as 127 ± 9 mmHg in assay [3] (setting [8]), 124 ± 6 mmHg in assay [3] (setting [9]), 148 ± 5 mmHg in [3] (setting [10]) and 128 ± 4 mmHg in assay [3] (setting [11]). Further, the GFR was determined as 0.81 ± 0.11 mL/min in assay [3] (setting [8]), 0.84 ± 0.15 mL/min in assay [3] (setting [9]), 0.32 ± 0.10 mL/min in assay [3] (setting [10]) and 0.34 ± 0.80 mL/min in [3] (setting [11]). Besides, the Hct was determined as 48.3 ± 1.2 Vol./dl in [3] (setting [8]), 53.0 ± 1.5 Vol./dl in assay [3] (setting [9]), 59.2 ± 2.2 Vol./dl in [3] (setting [10]) and 55.0 ± 1.8 Vol./dl in [3] (setting [11]). Besides, the RPF in [3] (setting [8]) was determined as 3.41 ± 0.50 mL/min; in [3] (setting [9]), 2.76 ± 0.59 mL/min; in assay [3] (setting [10]), 1.51 ± 0.44 mL/min; in assay [3] (setting [11]), 1.20 ± 0.15 mL/min. Further, the “Mean percent fall in RPF” value in assay [3] (LTD4 0.5 μg/kg/min) is 24%; in assay [3] (setting [12]), 40%; in [3] (setting [13]), 65%; in assay [3] (setting [14]), 70%. Besides, the “Mean percent fall in GFR” value in assay [3] (LTD4 0.5 μg/kg/min, p<0.05 vs baseline) is listed as 27%; in [3] (setting [12]), 25%; in assay [3] (setting [13]), 70%; in assay [3] (setting [14]), 73%. Besides, the “Kf and GFR in vivo” value in the assay on renal arterioles is recorded as “markedly reduces”. Moreover, the “Intracellular Ca2+ concentrations” value in the assay on HL-60 myeloid cells is “increase intracellular Ca^2+ concentrations”. The activation at 0.01 µM with rat mesangial cells is 146 ± 20%. Further, the activation at 0.05 µM with rat mesangial cells turned out to be 106 ± 13%. Also, the Systemic hemodynamic alterations result in [4] is “elevation in systemic arterial pressure and a progressive loss of plasma volume”.

As to `O=C(O)CCS[C@H](c1ccccc1CCCCCCCCc1ccccc1)[C@@H](O)C(=O)O` [SKF 104353], the “Inhibition of IP3 formation in response to LTD4 (FIG. 2)” value with LTD4 receptor [5] (setting [15]) was “complete abolition”. Besides, the “Inhibition of LTD4-induced stimulation of [3H]-IP3 formation” value in the assay with LTD4 receptor [5] (100-fold excess over ligand, LTD4 10 and 50 nM (n=3 each)) is given as “total abrogation”. Also, the Agonist activity result with LTD4/ LTE4 receptors is on record as “devoid of agonist activity”. Moreover, the “Inhibition of [3H]-LTD4 binding to its mesangial cell binding site” value in assay [6] is “inhibit [^3 H]-LTD4 binding”. Further, the “Inhibition of IP3 formation in response to LXA4 (FIG. 2)” value in the assay on LTD4 receptor [7] (setting [15]) was “complete abolition”. Besides, in the assay on LTD4 receptor [7] (SKF 104353 100 nM (n=3)), the “Inhibition of LXA4-induced IP3 formation” value is reported as “abrogated; also recorded: total abrogation”.
